Measured values reported in patent US20240409496A1, “SPERMINE DERIVATIVES AS HEPARIN ANTIDOTES” (CONSEJO SUPERIOR DE INVESTIGACIONES CIENTÍFICAS (CSIC), priority 2021, published 2024).

Experiments:
[1] = system: heparinized mice; assay: In vivo tail transection assay with mice; parameters: species or system mouse; settings: for reversal of Hep activity in vivo (bleeding of heparinized mice): Hep 100 IU/kg i.v. followed by 2.2 or 4.4 mg/kg, blood collected 10 minutes, FIG. 3B; for blood loss of heparinized mice at the highest doses: Hep 100 IU/kg, highest dose (4.4 mg/kg)
Description: In vivo tail transection assays with mice: Eight-weeks old CD-1 male mice (Janvier-Labs) were used for the study. Animals were housed under a 12 h light: dark cycle in an environmentally controlled room and free access to water and food. Mice were randomly assigned into 6 groups (n=6 for each group). Animals were anesthetized by i.p. injections of 0.465 mg/kg xylazine (Rompun, Bayer DVM) and 1.395 mg/kg ketamine (Imalgene 100, Merial Laboratorios). After anesthetizing them, different solutions were injected intravenously according to the assigned group: Saline group (only saline was given), Hep group (Hep injection, 100 IU/kg), 3AC (two groups, Hep injection followed by injection of 3AC at 2.2 mg/kg or 4.4 mg/kg) and 3FF (two groups, Hep injection followed by injection of 3FF at 2.2 mg/kg or 4.4 mg/kg). Two additional control groups (n=3) were included in which only the ligand (3AC or 3FF) at the highest dose (4.4 mg/kg) was injected. At 5 minutes after injections, tails were transected at 5 mm from the tip and immediately inserted in a tube containing 1 ml of saline buffer immersed in a water bath at 37° C., where the blood draining out of the wound was collected for 10 minutes. The blood draining out from the wound was collected in each tube. Tails were let bleed during 10 minutes. The total blood volume in each tube was quantified by spectrophotometry (absorbance at 414 nm) from a standard curve that was constructed with known volumes of blood hemoglobin concentration and corresponding absorbance value. Statistical analysis of the data was done with Kaleida Graph 4.5.4 using ANOVA.
3FF and 3AC were tested in an in vivo coagulation model. It was thus performed the tail transection assay with mice after consecutive injection of Hep, and the drugs at two different doses each (FIG. 3B). The control groups injecting saline or Hep, and those corresponding to just the drugs were also included.

[2] = system: freshly extracted mouse blood with Hep; assay: Ex vivo blood coagulation assay; settings: for reversal of anticoagulant effect of Hep in mouse blood (clot formation): Hep 130 μM, various ligand concentrations, 15 minutes, FIG. 3A
Description: Ex vivo blood coagulation assays: Freshly collected mouse blood was collected and directly used without further treatment. 300 μL aliquots were prepared. To them, Hep (130 μM), and various concentration of ligand (3AC or 3FF) were added. The samples of the different conditions were added to an Eppendorf tube and a picture was taken after 15 minutes. The clot formation was confirmed by turning around the Eppendorf vials.
Reversing the anticoagulant activity of heparin: In order to check the efficacy of the antidotes in a more representative environment, 3FF and 3AC were tested in real blood coagulation assays. Thus, it has been monitored the coagulation of freshly extracted mouse blood in the absence or presence of Hep, and upon addition of different concentrations of 3FF and 3AC.

[3] = system: [FXa-Hep-ATIII] complex; assay: Blood coagulation factor in vitro enzymatic assay (FXa/ATIII/Hep, chromogenic peptide hydrolysis); type: biochemical, human; settings: for in vitro potency as Hep antidote (recovery of FXa activity), rank order: 1 μM of each binder, Hep 0.1 IU/mL, FIG. 2B; for activity as Hep antidote in the enzymatic assay compared with ciraparantag: percent hydrolysis at 30 min, FIG. 2C
Description: Blood coagulation factor in vitro enzymatic assays: Recombinant antithrombin Ill and coagulation Factor Xa were obtained from the Berichrom Heparin test, supplied by SIEMENS. Following the indications of the test kit, stock solutions were prepared as follows: Human antithrombin III (1 IU/mL), Factor Xa reagent (0.4 μg/mL, human plasma fraction with the additives Tris, sodium chloride and EDTA) and a chromogenic substrate specific for factor Xa (4 mM of Z-D-Leu-Gly-ArgANBA-methyl amide). On the other hand, 4-nitroaniline (Sigma Aldrich) was added to the substrate solution at a concentration of 1.6 mM and was used as internal standard to quantify the hydrolysis of the chromogenic substrate. Heparin (sodium salt from porcine intestinal mucosa, polydisperse, from 6000 to 30000 Daltons) was purchased from Sigma-Aldrich. All compounds were dissolved in mili-Q water at the desired stock concentrations prior to start the assays and kept at 4° C. Various concentrations of the ligand, heparin (0.1 IU/mL), human antithrombin Ill solution (3.5 μL) and Factor Xa reagent solution (35 μL) were added in order to an Eppendorf and brought to a total volume of 145 μL. Then, 20 μL of Reagent Substrate solution was added to start the experiment and the mixture was vigorously shaken at 25° C. 20 μL samples were taken at minutes 5/10/15/20/30/50/80/120, diluted with 40 μL of acetic acid (20% v/v), and injected in the analytical HPLC. The gradient ranged from 5% ACN (0.1% formic acid) in water (0.1% formic acid) to 100% ACN in 24 minutes using a 15×4.6 mm KROMAPHASE C18 5.0 μm column (retention time of cleaved chromophore 9.1 min, retention time of chromogenic substrate 13.9 min, retention time of 4-nitroaniline 15.4 min). Concentrations of reagents have been adjusted compared with previous studies with the intention to slow down the total exhaustion of peptide substrate. In this way the activity can be more carefully modulated and any change is easier to detect. FXa/ATIII activity was represented as percent of hydrolysis, which was calculated from the normalized area of cleaved peptide at 405 nm at each corresponding time point. Experiment carried out in absence of heparin was considered as maximum of activity while experiment with heparin and no ligand was considered as negative control (maximum inhibition of FXa by heparin). Concentration of heparin was selected for the measurement to render a significant inhibition within experimental time, while allowing the reaction to proceed.
In vitro inhibition of heparin activity. The effect of the binders as Hep antidotes can be tested in vitro using an enzymatic reaction related to the blood coagulation process (FIG. 2A). This test employs human recombinant coagulation factor Xa (FXa) and antithrombin III (ATIII), with the synthetic peptide Z-D-LGR-N(Me)ANBA as the substrate of the FXa protease to mimic the prothrombin to thrombin transformation that triggers blood coagulation. Heparin forms a ternary complex with ATIII and FXa with a low hydrolytic activity, as a model for the anticoagulation effect of Hep. The addition of an efficient Hep binder dissociates the [FXa-Hep-ATIII] complex, thus releasing the active form of FXa that cleaves the substrate. The peptide hydrolysis can be readily monitored by analytical HPLC thanks to the ANBA chromophore, as an accurate measurement of the reaction kinetics.
In parallel experiments, the addition of equal concentration (1 μM) of each of the binders produces a different level of recovery of the FXa activity. […] Actually, several selected molecules derived from spermine were tested in the enzymatic assay (FIG. 2C) most of them showing activity in the reversal of the heparin action.

[4] = Surface Plasmon Resonance (SPR) on heparin-functionalized chips; type: binding
Description: Surface Plasmon Resonance (SPR): Affinity experiments between inhibitors and heparin were performed on an Open SPR™(Nicoya). All measurements were performed at 25° C. using a working buffer of 25 mM Tris at pH 7.5. Biotin-loaded sensor chips (NICOYA) were further functionalized with streptavidine (50 μg/mL) and later with biotin-heparin (50 μg/mL). Binding experiments to heparin were performed by injecting inhibitors at desired concentrations and at a rate of 40 μL/min. Between binding assays, the surface was regenerated by exposure to an injection of 10 mM HCl. Fitting has been performed by Trace Drawer software using a ‘one-to-one two-state algorithm’, which considers a 1:1 binding with a further equilibrium like a conformational change. Results obtained from three independent experiments at three different concentrations of the ligands were fit globally to render the corresponding on/off rate constants and the apparent dissociation constants (KD^app Table 1, as shown below).
Binding of the spermine derivatives to the heparin target. Surface Plasmon Resonance (SPR) on heparin-functionalized chips were used to determine the apparent dissociation constant of selected molecules (KD^app, Table 1).

Oc1ccccc1CNCCCNCCCCNCCCNCc1ccc2c(c1)Cc1ccccc1-2 [Compound 3AC, 2-(16-(9H-fluoren-2-yl)-2,6,11,15-tetraazahexadecyl)phenol]
reversal of Hep activity in vivo (bleeding of heparinized mice) [1]: efficient antidotes of Hep also in vivo, strongly reducing the bleeding of heparinized mice
blood loss of heparinized mice at the highest doses [1]: reversed to values very similar to those of the control group injected with saline
in vivo reversal potency, 3AC compared with 3FF ([1]; tail transection, mice): more potent reversal agent than 3FF
reversal of anticoagulant effect of Hep in mouse blood (clot formation) [2]: able to revert the anticoagulant effect of Hep in a dose-response manner
ex vivo antidote quality, 3AC compared with 3FF ([2]; equal doses, qualitative): better antidote than 3FF
in vitro potency as Hep antidote (recovery of FXa activity), rank order [3]: <3AC
activity as Hep antidote in the enzymatic assay compared with ciraparantag [3]: even more potent
affinity to Hep compared with ciraparantag [4]: higher affinity to Hep than ciraparantag

Oc1ccccc1CNCCCNCCCCNCCCNCc1c(O)ccc2ccccc12 [Compound 3AF, 1-(16-(2-hydroxyphenyl)-2,6,11,15-tetraazahexadecyl)naphthalen-2-ol]
in vitro potency as Hep antidote (recovery of FXa activity), rank order [3]: 3AF (open circles)<3FF

Oc1ccccc1CNCCCNCCCCNCCCNCc1ccc2ccccc2c1O [Compound 3AG, 2-(16-(2-hydroxyphenyl)-2,6,11,15-tetraazahexadecyl)naphthalen-1-ol]
in vitro potency as Hep antidote (recovery of FXa activity), rank order [3]: 3AG (rhombuses)<3AF

Oc1ccccc1CNCCCNCCCCNCCCNCc1cccc2ccccc12 [Compound 3AL, 2-(16-(naphthalen-1-yl)-2,6,11,15-tetraazahexadecyl)phenol, reference compound]
in vitro potency as Hep antidote (recovery of FXa activity), rank order [3]: 3AL (X symbols)≤3AG

Oc1ccc2ccccc2c1CNCCCNCCCCNCCCNCc1c(O)ccc2ccccc12 [Compound 3FF, 1,1′-(2,6,11,15-tetraazahexadecane-1,16-diyl)bis(naphthalen-2-ol)]
reversal of Hep activity in vivo (bleeding of heparinized mice) [1]: efficient antidotes of Hep also in vivo, strongly reducing the bleeding of heparinized mice
blood loss of heparinized mice at the highest doses [1]: reversed to values very similar to those of the control group injected with saline
reversal of anticoagulant effect of Hep in mouse blood (clot formation) [2]: able to revert the anticoagulant effect of Hep in a dose-response manner
in vitro potency as Hep antidote (recovery of FXa activity), rank order [3]: 3FF (inverted solid triangles)<3AC
activity as Hep antidote in the enzymatic assay compared with ciraparantag [3]: comparable with the drug ciraparantag
affinity to Hep compared with ciraparantag [4]: higher affinity to Hep than ciraparantag
